Counter-ions that a name gives are not always drawn. *1 amine or outer side, *2 acyl side, *3 side chain or, on linkers, in order; H or OH if unused. Where a SMILES comes first, the peptide text is derived from it. Bridges are numbered along the chain shown (N, C = ends). Roman numbers before positions name the chains, in order. [ ]: non-standard residue; d: D form. Actinocin(9to1) = Cc1c2oc3c(C)ccc(C(=O)[*:1])c3nc-2c(C(=O)[*:2])c(N)c1=O; NMeV = CN[C@H](C(=O)O)C(C)C; Sar = CNCC(=O)O
system: hDMFa myofibroblast cells

| SMILES | Compound Myofibroblast Cytotoxicity Activity |
| --- | --- |
| CO[C@@H]1[C@@H](OC(N)=O)[C@@H](O)[C@H](Oc2ccc3c(O)c(NC(=O)c4ccc(O)c(CC=C(C)C)c4)c(=O)oc3c2C)OC1(C)C [Cmpd 724, Novobiocin Sodium] | ++++ |
| COC(=O)C1=C(C#N)NC(C)=C(C(=O)OC(C)C)C1c1cccc([N+](=O)[O-])c1 (stereo not shown) [Cmpd 715, Nilvadipine] | +++ |
| O=C(O)CCC(=O)O [Cmpd 196, Butane diacid] | ++ |
| CC(CN1c2ccccc2Sc2ccccc21)N(C)C (stereo not shown) [Cmpd 801, Promethazine HCl] | ++ |
| Nc1cccc2c1C(=O)N(C1CCC(=O)NC1=O)C2=O (stereo not shown) [Cmpd 789, Pomalidomide (CC-4047)] | ++ |
| CC(C)[C@H](N)C(=O)O [Cmpd 618, L-Valine] | ++ |
| CCN(C(=O)c1c(O)c2c(Cl)cccc2n(C)c1=O)c1ccccc1 [Cmpd 559, Laquinimod (ABR-215062)] | ++++ |
| CC(C)(C)C(=O)OCOP(=O)(COCCn1cnc2c(N)ncnc21)OCOC(=O)C(C)(C)C [Cmpd 89, Adefovir Dipivoxil] | ++++ |
| Cc1c2oc3c(C)ccc(C(=O)N[C@@H]4C(=O)N[C@H](C(C)C)C(=O)N5CCC[C@H]5C(=O)N(C)CC(=O)N(C)[C@@H](C(C)C)C(=O)O[C@@H]4C)c3nc-2c(C(=O)N[C@@H]2C(=O)N[C@H](C(C)C)C(=O)N3CCC[C@H]3C(=O)N(C)CC(=O)N(C)[C@@H](C(C)C)C(=O)O[C@@H]2C)c(N)c1=O [Cmpd 86, Actinomycin D] (I: T[dV]P[Sar][NMeV] / II: T[dV]P[Sar][NMeV]; ester I:1-I:C, II:1-II:C; linker I:N-II:N via Actinocin(9to1)) | ++ |
| CCCC(=O)OCOC(=O)C1=C(C)NC(C)=C(C(=O)OC)C1c1cccc(Cl)c1Cl (stereo not shown) [Cmpd 279, Clevidipine Butyrate] | ++ |
| CC(=O)[C@@]1(O)CC[C@H]2[C@@H]3C[C@H](C)C4=CC(=O)C=C[C@]4(C)[C@@]3(F)[C@@H](O)C[C@@]21C [Cmpd 463, Fluorometholone] | ++ |
| c1ccc(-c2ccc(C(c3ccccc3)n3ccnc3)cc2)cc1 (stereo not shown) [Cmpd 182, Bifonazole] | +++ |
| Cn1cc(C2=C(c3cn(C4CCN(Cc5ccccn5)CC4)c4ccccc34)C(=O)NC2=O)c2ccccc21 [Cmpd 420, Enzastaurin (LY317615)] | ++++ |
| O=C(c1ccc(F)c(F)c1Nc1ccc(I)cc1F)N1CC(O)([C@@H]2CCCCN2)C1 [Cmpd 290, Cobimetinib] | ++++ |
| Cl.c1ccc2c(-c3cnn4cc(-c5ccc(N6CCNCC6)cc5)cnc34)ccnc2c1 [Cmpd 574, LDN193189 Hydrochloride] | +++++ |
| CN[C@@H]1[C@H](O)[C@H](NC)[C@H]2O[C@@]3(O)C(=O)C[C@@H](C)O[C@H]3O[C@@H]2[C@H]1O [Cmpd 885, Spectinomycin (hydrochloride hydrate)] | +++ |
| CC(O)Cn1cnc2c1c(=O)n(C)c(=O)n2C (stereo not shown) [Cmpd 805, Proxyphylline] | ++ |
| CCCCCCCCCCCCC/C=C/[C@@H](O)[C@@H](N)CO [Cmpd 341, D-erythro-Sphingosine (synthetic)] | ++ |
| O=P(O)(O)C(Cl)(Cl)P(=O)(O)O [Cmpd 282, Clodronate (sodium salt hydrate)] | +++ |
| CN(C)CCCN1c2ccccc2CCc2ccc(Cl)cc21 [Cmpd 285, Clomipramine HCl] | ++ |
| C[C@]12CC[C@@H]3c4ccc(O)cc4CC[C@H]3[C@@H]1CC[C@@H]2OC(=O)CCC1CCCC1 [Cmpd 430, Estradiol Cypionate] | +++ |
| COc1cc(NS(C)(=O)=O)ccc1Nc1c2ccccc2nc2ccccc12.Cl [Cmpd 116, Amsacrine hydrochloride] | +++ |
| CC(C)c1c(C(=O)Nc2ccccc2)c(-c2ccccc2)c(-c2ccc(F)cc2)n1CC[C@@H](O)C[C@@H](O)CC(=O)[O-].CC(C)c1c(C(=O)Nc2ccccc2)c(-c2ccccc2)c(-c2ccc(F)cc2)n1CC[C@@H](O)C[C@@H](O)CC(=O)[O-].[Ca+2] [Cmpd 140, Atorvastatin Calcium] | ++++ |
| C=C1[C@H](CO)[C@@H](O)C[C@@H]1n1cnc2c(=O)[nH]c(N)nc21 [Cmpd 418, Entecavir Hydrate] | +++ |
| O=C1CCc2ccc(OCCCCN3CCN(c4cccc(Cl)c4Cl)CC3)cc2N1 [Cmpd 129, Aripiprazole] | +++ |
| N[C@@H](Cc1c[nH]c2ccccc12)C(=O)O [Cmpd 615, L-Tryptophan] | ++ |
| O=C(O)c1cc(O)cc(O)c1 [Cmpd 50, 3-5-Dihydroxybenzoic Acid] | ++ |
| C[C@H](CCC(=O)O)[C@H]1CC[C@H]2[C@@H]3[C@@H](O)C[C@@H]4C[C@H](O)CC[C@]4(C)[C@H]3CC[C@]12C [Cmpd 988, Ursodeoxycholic Acid] | + |

| SMILES | Compound Myofibroblast Cytotoxicity Activity |
| --- | --- |
| OC(CCCN1CCCCC1)(c1ccccc1)c1ccccc1 [Cmpd 365, Diphenidol HCl] | ++++ |
| CC(C)c1nc(N(C)S(C)(=O)=O)nc(-c2ccc(F)cc2)c1/C=C/[C@@H](O)C[C@@H](O)CC(=O)[O-].CC(C)c1nc(N(C)S(C)(=O)=O)nc(-c2ccc(F)cc2)c1/C=C/[C@@H](O)C[C@@H](O)CC(=O)[O-].[Ca+2] [Cmpd 842, Rosuvastatin Calcium] | +++ |
| Nc1ncnc2c1ncn2[C@@H]1O[C@H](COP(=O)(O)OP(=O)(O)O)[C@@H](O)[C@H]1O [Cmpd 92] | ++ |
| CCCCCCCCOc1ccccc1C(=O)Nc1ccc(C(=O)OCC[N+](C)(CC)CC)cc1 [Cmpd 741, Otilonium Bromide] | +++++ |
| C[C@H]1O[C@@H](O[C@H]2CC[C@@]3(C)[C@@H](CC[C@]4(C)[C@@H]3C=C[C@]35OC[C@@]6(CCC(C)(C)C[C@H]63)[C@@H](O)C[C@]54C)[C@]2(C)CO)[C@H](O)[C@@H](O[C@@H]2O[C@H](CO)[C@@H](O)[C@H](O)[C@H]2O)[C@H]1O [Cmpd 846, Saikosaponin A] | +++++ |
| CO[C@@]1(NC(=O)Cc2cccs2)C(=O)N2C(C(=O)O)=C(COC(N)=O)CS[C@@H]21 [Cmpd 234, Cefoxitin (sodium salt)] | +++++ |
| COc1ccc2[n-]c([S@@+]([O-])Cc3ncc(C)c(OC)c3C)nc2c1.COc1ccc2[n-]c([S@@+]([O-])Cc3ncc(C)c(OC)c3C)nc2c1.O.O.O.[Mg+2] [Cmpd 428, Esomeprazole Magnesium trihydrate] | ++ |
| CC(C)(C)NCC(O)c1cc(Cl)c(N)c(Cl)c1 (stereo not shown) [Cmpd 278, Clenbuterol (hydrochloride)] | ++ |
| O=C(O)c1ccncc1 [Cmpd 537, Isonicotinic acid] | ++++ |
| O=c1sn(-c2cccc3ccccc23)c(=O)n1Cc1ccccc1 [Cmpd 946, Tideglusib] | ++ |
| CCCCC/C=C\C/C=C\C/C=C\CCCCC(=O)O [Cmpd 9, γ-Linolenic Acid] | +++ |
| CCCCCCCC/C=C\CCCCCCCC(=O)O [Cmpd 733, Oleic Acid] | +++ |
| C=C1C(=O)O[C@@H]2/C=C(\C)CC/C=C(\C)CC[C@@H]12 [Cmpd 292, Costunolide] | +++ |
| CC(CN(C)C)CN1c2ccccc2CCc2ccccc21.O=C(O)/C=C\C(=O)O (stereo not shown) [Cmpd 975, Trimipramine (maleate)] | ++ |
| CNC1CCCN(c2c(F)cc3c(=O)c(C(=O)O)cn(C4CC4)c3c2OC)C1 (stereo not shown) [Cmpd 154, Balofloxacin Dihydrate] | ++ |
| COc1cc2nc(N3CCN(C(=O)C4COc5ccccc5O4)CC3)nc(N)c2cc1OC (stereo not shown) [Cmpd 384, Doxazosin Mesylate] | +++ |
| Cc1cc(=O)oc2cc(O)ccc12 [Cmpd 63, 4-Methylumbelliferone (4-MU)] | ++++ |
| CCN1CCN(c2cc(-c3ccc(F)cc3)c3c(n2)CCCCCC3)CC1 [Cmpd 187, Blonanserin] | +++ |
| C=C1CC[C@H](O)C/C1=C/C=C1\CCC[C@]2(C)[C@@H]([C@H](C)CCCC(C)C)CC[C@@H]12 [Cmpd 1009, Vitamin D3] | +++ |
| CO[C@H]1/C=C/O[C@@]2(C)Oc3c(C)c(O)c4c(O)c(cc(O)c4c3C2=O)NC(=O)/C(C)=C\C=C\[C@H](C)[C@H](O)[C@@H](C)[C@@H](O)[C@@H](C)[C@H](OC(C)=O)[C@@H]1C [Cmpd 833, Rifamycin sodium salt] | ++ |
| Cc1cc(-c2ccc(/N=N/c3ccc4c(S(=O)(=O)[O-])cc(S(=O)(=O)[O-])c(N)c4c3O)c(C)c2)ccc1/N=N/c1ccc2c(S(=O)(=O)[O-])cc(S(=O)(=O)[O-])c(N)c2c1O.[Na+].[Na+].[Na+].[Na+] [Cmpd 445, Evans Blue tetrasodium salt] | ++ |
| Cl.NCCCC(N)(C(=O)O)C(F)F (racemic) [Cmpd 371, DL-α-Difluoromethylornithine (hydrochloride hydrate)] | ++ |
| CC/C(=C(\c1ccccc1)c1ccc(OCCN(C)C)cc1)c1ccccc1 [Cmpd 911, Tamoxifen Citrate] | +++ |
| Cl.N=C(N)c1ccccc1 [Cmpd 163, Benzamidine HCl] | +++ |
| Clc1ccc(CCC(Cn2ccnc2)Sc2c(Cl)cccc2Cl)cc1 (stereo not shown) [Cmpd 198, Butoconazole nitrate] | +++ |
| [H]/N=C(\N/C(=N/[H])NCCCCCCNC(=N)NC(=N)Nc1ccc(Cl)cc1)Nc1ccc(Cl)cc1 [Cmpd 249, Chlorhexidine HCl] | +++++ |
| CC(=O)O[C@H]1CC[C@@]2(C)C(=CC[C@@H]3[C@@H]2CC[C@]2(C)C(c4cccnc4)=CC[C@@H]32)C1 [Cmpd 75, Abiraterone acetate] | +++ |
